≈ marks a conversion by molar mass, not a printed value. Where two headings read alike, the source gives them in different places. Numbered stars: 1 amine (or outer) side, 2 acyl side, 3 side chain; on linkers, the order of the positions; unused ones are H or OH. Bridge positions count the residues as written; N and C are the ends. Square brackets hold non-standard residues; d marks the D form. Peptide text beside a SMILES is read from it. * marks the point of attachment. X1 = C[C@@H](O)[C@@H](CS[*:1])N[*:2]; dGly(nOct) = CCCCCCCC[C@@H](N)C(=O)O; Hica(2S) = CC(C)C[C@H](O)C(=O)O; Octanoyl = CCCCCCCC(=O)*; Dab = NCC[C@H](N)C(=O)O
Assays:
P. aeruginosa ATCC 27853 = experiment: microbe, parasite or virus in culture; type: cell-based; settings: for MIC: resistance profile of strain P. aeruginosa ATCC 27853, Table 3; for antibacterial activity (MIC): ATCC 27853
Method: (§1) The antibacterial activity of the polymyxin lipopeptides was measured at ISGlobal following the microdilution test to determine the Minimal Inhibitory Concentrations (MIC) in sterile 96-well polypropilene plates. The concentration range was 32 a […] in Iso-Sensitest broth (Oxoid, ThermoFisher). The results were carried out in triplicate and the highest MIC is the one shown. Bacterial strains were grown in blood agar plates at 37° C. for 17 h. Fresh colonies were used to prepare a McFarland 0.5 solution that was finally added to the plates at 1 to 100 dilution
(§2) Samples of sensitive and multi-drug resistant bacteria were: E. coli ATCC 25922 E. coli MB1410; K. pneumoniae MB674; P. aeruginosa ATCC 27853; P. aeruginosa 36A.

E. coli ATCC 25922 = experiment: microbe, parasite or virus in culture; type: cell-based; settings: for antibacterial activity (MIC): ATCC 25922
Method: as §1, §2

K. pneumoniae MB674 = type: cell-based; settings: for MIC: resistance profile of strain K. pneumoniae MB674, Table 3; for antibacterial activity (MIC): MB674
Method: as §1, §2

Swiss CD-1 female mice = experiment: Nephrotoxicity study, histopathological scoring of kidney lesions; type: in vivo; parameters: key to Group Score (GS): mean of per-animal summed 0-4 lesion scores; higher = more nephrotoxic; key to Animal Score (AS), Partial AS: sum of 0-4 lesion parameter scores; higher = more nephrotoxic; settings: Table 6, 12 mg/Kg every 2 hours × 6, subcutaneous, total 72 mg/Kg; for Group Score (GS): mean of animal scores; for Cell desquamation, Partial AS / Cell vacuolization, Partial AS / Cloudy swelling, Partial AS / Tubular casts, Partial AS / Tubular dilation, Partial AS / Tubular necrosis, Partial AS: sum of mouse scores; for Animal Score (AS), Partial AS: sum over all mice
Method: Swiss CD-1 female mice weighing approximately 20-24 g (JANVIER Labs) were used, housed in an individually ventilated cage system under specific pathogen-free conditions, and water and food supplied ad libitum. This study plan and the conduct of the study were subjected to review by the Scientific Park of Barcelona Ethical Review Process with the current study procedure Code CEEA (AR) 9377-P2. Mice were administered at a dose of 12 mg/Kg every 2 hours for a total of 6 administrations (total dose 72 mg/Kg), unless otherwise stated. After 20 h, animals were anesthesized with isoflurane, kidneys extracted and prepared for histopathological evaluation, and finally animales were sacrificed. Kidney lesions (tubule dilation, necrosis, tubule casts, cell vacuolization, cell desquamation, and cell swelling) were quantified by microscopical observation (see for instance, Roberts, ACS Infect. Dis., 2015, 1, 568). Each one of these parameters was scored with values from 0 to 4 for each animal, as a global result of observations in kidney. Partial scores have been added up to obtain a final score for each animal (Animal Score, AS). The mean of animal score has been obtained to define the Group Score (GS). The higher the score, the more nephrotoxic a compound is. The nephrotoxicity score has been determined as according to the following table of approximated values: […]

E. coli MB1410 = experiment: microbe, parasite or virus in culture; type: cell-based; settings: MB1410
Method: as §1, §2

P. aeruginosa 36A = experiment: microbe, parasite or virus in culture; type: cell-based; settings: for antibacterial activity (MIC): 36A; for MIC: resistance profile of strain P. aeruginosa 36A, Table 3
Method: as §1, §2

[1] = resistance profile of strain E. coli ATCC 25922, Table 3
[2] = Escherichia coli, ATCC25922, resistance profile of strain E. coli ATCC 25922, Table 3, read-out: MIC
[3] = Pseudomonas aeruginosa, ATCC27853, read-out: MIC

Gentamicin [Gm]
MIC (P. aeruginosa ATCC 27853): 1.5 µg/mL
MIC (E. coli ATCC 25922; [1]): 0.5 µg/mL
MIC (K. pneumoniae MB674): 2 µg/mL

CCCCCCCC[C@@H](N)C(=O)N[C@H](C(=O)N[C@@H](CCN)C(=O)N[C@H]1CSSC[C@H]([C@@H](C)O)NC(=O)[C@H](CCN)NC(=O)[C@H](CCN)NC(=O)[C@H](CC(C)C)OC(=O)[C@@H](Cc2ccccc2)NC(=O)[C@H](CCN)NC1=O)[C@@H](C)O [Example 10, DAdec-Thr-Dab-cyclo(S-S)[Cys-Dab-DPhe-Ole-Dab-Dab-Ttr]] (H-[dGly(nOct)]T[Dab]C[Dab][dF][Hica(2S)][Dab][Dab]; linker 4-C via X1)
Mice found dead (Swiss CD-1 female mice): None
Group Score (GS) (Swiss CD-1 female mice): 0
Cell desquamation, Partial AS (Swiss CD-1 female mice): 0
Cell vacuolization, Partial AS (Swiss CD-1 female mice): 0
Cloudy swelling, Partial AS (Swiss CD-1 female mice): 0
Tubular casts, Partial AS (Swiss CD-1 female mice): 0
Tubular dilation, Partial AS (Swiss CD-1 female mice): 0
Tubular necrosis, Partial AS (Swiss CD-1 female mice): 0
Animal Score (AS), Partial AS (Swiss CD-1 female mice): 0
antibacterial activity (MIC) (E. coli MB1410): 1 µg/mL
antibacterial activity (MIC) (P. aeruginosa 36A): 2 µg/mL
antibacterial activity (MIC) (P. aeruginosa ATCC 27853): 2 µg/mL
antibacterial activity (MIC) (E. coli ATCC 25922): 2 µg/mL
antibacterial activity (MIC) (K. pneumoniae MB674): 2 µg/mL

CO/N=C(\C(=O)N[C@@H]1C(=O)N2C(C(=O)O)=C(COC(C)=O)CS[C@H]12)c1csc(N)n1 [CTX, Cefotaxime]
MIC (E. coli ATCC 25922; [2]): 0.5 µg/mL (≈ 1.1 µM)

O=C(O)c1cn(C2CC2)c2cc(N3CCNCC3)c(F)cc2c1=O [Cip, Ciprofloxacin]
MIC (P. aeruginosa ATCC 27853; [3]): 0.25 µg/mL (≈ 0.754 µM)
MIC (E. coli ATCC 25922; [2]): 0.06 µg/mL (≈ 0.181 µM)

CCCCCCCC(=O)N[C@@H](CCN)C(=O)N[C@H](C(=O)N[C@@H](CCN)C(=O)N[C@H]1CSSC[C@H]([C@@H](C)O)NC(=O)[C@H](CCN)NC(=O)[C@H](CCN)NC(=O)[C@H](CC(C)C)OC(=O)[C@@H](Cc2ccccc2)NC(=O)[C@H](CCN)NC1=O)[C@@H](C)O [Example 9, Octanoyl-Dab-Thr-Dab-cyclo(S-S)[Cys-Dab-DPhe-OLe-Dab-Dab-Ttr]] (Octanoyl-[Dab]T[Dab]C[Dab][dF][Hica(2S)][Dab][Dab]; linker 4-C via X1)
Mice found dead (Swiss CD-1 female mice): 1
Group Score (GS) (Swiss CD-1 female mice): 0
Cell desquamation, Partial AS (Swiss CD-1 female mice): 0
Cell vacuolization, Partial AS (Swiss CD-1 female mice): 0
Cloudy swelling, Partial AS (Swiss CD-1 female mice): 0
Tubular casts, Partial AS (Swiss CD-1 female mice): 0
Tubular dilation, Partial AS (Swiss CD-1 female mice): 0
Tubular necrosis, Partial AS (Swiss CD-1 female mice): 0
Animal Score (AS), Partial AS (Swiss CD-1 female mice): 0
antibacterial activity (MIC) (E. coli MB1410): 1 µg/mL
antibacterial activity (MIC) (P. aeruginosa 36A): 2 µg/mL
antibacterial activity (MIC) (P. aeruginosa ATCC 27853): 2 µg/mL
antibacterial activity (MIC) (E. coli ATCC 25922): 4 µg/mL
antibacterial activity (MIC) (K. pneumoniae MB674): 1 µg/mL

CN(C)c1cc(NC(=O)CNC(C)(C)C)c(O)c2c1C[C@H]1C[C@H]3[C@H](N(C)C)C(O)=C(C(N)=O)C(=O)[C@@]3(O)C(O)=C1C2=O [TG, Tigecicline]
MIC (P. aeruginosa 36A): 12 µg/mL (≈ 20.5 µM)
MIC (P. aeruginosa ATCC 27853): 12 µg/mL (≈ 20.5 µM)
MIC (E. coli ATCC 25922; [1]): 0.5 µg/mL (≈ 0.854 µM)
MIC (K. pneumoniae MB674): 0.5 µg/mL (≈ 0.854 µM)

CO/N=C(\C(=O)N[C@@H]1C(=O)N2C(C(=O)[O-])=C(C[N+]3(C)CCCC3)CS[C@H]12)c1csc(N)n1 [FEP, Cefepime]
MIC (P. aeruginosa 36A; Pseudomonas aeruginosa, read-out: MIC): 8 µg/mL (≈ 16.6 µM)
MIC (P. aeruginosa ATCC 27853; [3]): 1 µg/mL (≈ 2.08 µM)
MIC (E. coli ATCC 25922; [2]): 0.06 µg/mL (≈ 0.125 µM)

C[C@@H](O)[C@H]1C(=O)N2C(C(=O)O)=C(SCCN=CN)C[C@H]12 [IP, Imipenem]
MIC (E. coli MB1410; Escherichia coli): 0.125 µg/mL (≈ 0.418 µM)
MIC (P. aeruginosa ATCC 27853; [3]): 2 µg/mL (≈ 6.68 µM)
MIC (E. coli ATCC 25922; Escherichia coli, ATCC25922): 0.125 µg/mL (≈ 0.418 µM)

Source: patent US20210253520A1, “POLYMYXIN-BASED COMPOUNDS USEFUL AS ANTIBACTERIAL AGENTS” (UNIVERSITAT DE BARCELONA, priority 2018, published 2021)
